A word on the IC50: it is the concentration that inhibits the measured activity by half. Low values mean higher potency, high ones lower potency.

Activity calls are given as the source filed them. The calls are words filed in the database; no cut-off is given here.

The test system of data set [1] is PC-3. Put plainly: Induction of autophagy in human PC3 cells assessed as increase LC3 intracellular localization at 100 nM to 300 nM after 24 hrs by immunocytochemistry. Type of data set: functional, cell-based.
Data set [2] deals with PC-3. Put plainly: Induction of autophagy in human PC3 cells assessed as increase in conversion of LC3-I to LC3-II at 0.1 to 0.3 uM after 24 hrs by Western blotting method. In kind it is functional, cell-based. (In general: Immunoblotting shows a protein as a band on a membrane.)
For data set [3], the system named is PC-3. Put plainly: Induction of autophagy in human PC3 cells assessed as reduction in SQSTM1/P62 protein levels at 0.1 to 0.3 uM after 24 hrs by Western blotting method. In kind it is functional, cell-based.
Data set [4] concerns PC-3. Kind of data set: Induction of autophagy in human PC3 cells assessed as increase in Beclin-1 protein levels at 0.1 to 0.3 uM after 24 hrs by Western blotting method. In kind it is functional, cell-based.
The subject of data set [5] is PC-3. Kind of data set: Inhibition of Akt S473 phosphorylation in human PC3 cells at 0.1 to 0.3 uM after 24 hrs by Western blotting method. Type of data set: cell-based.
Data set [6] relates to PC-3. Put plainly: Inhibition of Akt in human PC3 cells assessed as reduction in mTOR S2448 phosphorylation at 0.1 to 0.3 uM after 24 hrs by Western blotting method. Type of data set: cell-based.
The nature of data set [7]: Effect on total Akt protein levels in human PC3 cells at 0.1 to 0.3 uM after 24 hrs by Western blotting method. In kind it is ADME, cell-based. Particulars: pc-3, 24 h.
Data set [8] in a line: Effect on total mTOR protein levels in human PC3 cells at 0.1 to 0.3 uM after 24 hrs by Western blotting method. In kind it is ADME, cell-based. Particulars: pc-3, 24 h.
Data set [9] can be described thus: Reduction in Bcl-2 protein expression in human PC3 cells at 0.1 to 0.3 uM after 24 hrs by Western blotting method. In kind it is functional, cell-based. Particulars: PC-3.
Data set [10] in a line: Cytotoxicity against human PC3 cells after 48 hrs by MTT assay. In kind it is functional, cell-based. To be noted: PC-3, 48 h.
Another data set concerns A549. Put plainly: Cytotoxicity against human A549 cells after 48 hrs by MTT assay. To be noted: A549, 48 h. In kind it is functional, cell-based. (Formazan colour is commonly taken as a measure of viable cells.)
For another data set, the system named is HeLa. Kind of data set: Cytotoxicity against human HeLa cells after 48 hrs by MTT assay. In kind it is functional, cell-based.
Data set [11] relates to PC-3. Kind of data set: Induction of autophagy in human PC3 cells assessed as acidic vesicular organelles formation at 100 to 300 nM after 24 hrs by acridine orange staining based fluorescence microscopy. Type of data set: functional, cell-based.
Data set [12] deals with PC-3. Put plainly: Induction of autophagy in human PC3 cells assessed as autophagosomes formation at 100 to 300 nM after 24 hrs by acridine orange staining based fluorescence microscopy. In kind it is functional, cell-based.
The subject of data set [13] is PC-3. Kind of data set: Induction of apoptosis in human PC3 cells assessed as nuclear condensation at 100 to 300 nM after 24 hrs by DAPI staining assay. In kind it is functional, cell-based.
Data set [14] concerns PC-3. Put plainly: Induction of apoptosis in human PC3 cells assessed as membrane blebbing at 100 to 300 nM after 24 hrs by DAPI staining assay. In kind it is functional, cell-based.
Data set [15] has as its system PC-3. Put plainly: Induction of autophagy in human PC3 cells at 100 to 300 nM after 24 hrs by MDC staining based fluorescence microscopy. Type of data set: functional, cell-based.
Data set [16] concerns PC-3. Put plainly: Induction of autophagy in human PC3 cells at 100 to 300 nM after 24 hrs by acridine orange staining based fluorescence microscopy. In kind it is functional.
Data set [17] concerns PC-3. Kind of data set: Induction of autophagy in human PC3 cells assessed as LC3 protein accumulation in autophagosomes after 24 hrs by fluorescence microscopy. Type of data set: functional, cell-based.
Data set [18] deals with PC-3. Put plainly: Induction of autophagy in human PC3 cells assessed as increase in punctate EGFP-LC3 pattern in autophagosomes at 100 nM to 300 nM after 24 hrs by fluorescence microscopy. Type of data set: functional, cell-based.
In data set [19] the test system is PC-3. Kind of data set: Induction of apoptosis in human PC3 cells assessed as caspase-3 cleavage at 0.1 to 0.3 uM after 24 hrs by Western blotting method. Type of data set: functional, cell-based.
Data set [20] concerns PC-3. Kind of data set: Induction of apoptosis in human PC3 cells assessed as increase in Annexin-V positive cells at 0.1 to 0.3 uM after 24 hrs. Type of data set: functional, cell-based.
Data set [21] relates to PC-3. Put plainly: Induction of apoptosis in human PC3 cells assessed as caspase-3 cleavage at 300 nM after 24 hrs by Western blotting method. In kind it is functional, cell-based.
Data set [22] concerns PC-3. Kind of data set: Induction of autophagy in human PC3 cells at 300 nM pre-treated with 5 mM autophagy inhibitor 3-MA for 1 hr before compound exposure for 24 hrs by acridine orange staining based fluorescence microscopy. In kind it is functional, cell-based.
Data set [23] relates to PC-3. Put plainly: Induction of autophagy in human PC3 cells at 300 nM pre-treated with 20 uM apoptosis inhibitor z-VAD-fmk for 1 hr before compound exposure for 24 hrs by acridine orange staining based fluorescence microscopy. In kind it is functional, cell-based.
Data set [24] concerns PC-3. Put plainly: Induction of apoptosis in human PC3 cells at 300 nM pre-treated with 5 mM autophagy inhibitor 3-MA for 1 hr before compound exposure for 24 hrs by DAPI staining method. Type of data set: functional, cell-based.
Data set [25] has as its system PC-3. Kind of data set: Induction of apoptosis in human PC3 cells at 300 nM pre-treated with 20 uM apoptosis inhibitor z-VAD-fmk for 1 hr before compound exposure for 24 hrs by DAPI staining method. In kind it is functional, cell-based.
Data set [26] has as its system PC-3. Put plainly: Increase in autophagy in human PC3 cells at 300 nM pre-treated with 20 uM apoptosis inhibitor z-VAD-fmk for 1 hr before compound exposure for 24 hrs by acridine orange staining based fluorescence microscopy. In kind it is functional, cell-based.
Data set [27] has as its system PC-3. Put plainly: Increase in PARP-cleavage in human PC3 cells at 0.3 uM in presence of Beclin-1 siRNA after 24 hrs by immunoblotting method. Type of data set: functional, cell-based.
Data set [28] concerns PC-3. Put plainly: Induction of autophagy in human PC3 cells over-expressing Bcl-2 at 300 nM pre-treated with 20 uM apoptosis inhibitor z-VAD-fmk for 1 hr before compound exposure for 24 hrs by acridine orange staining based fluorescence microscopy. Type of data set: functional, cell-based.
Data set [29] relates to PC-3. Put plainly: Induction of apoptosis in human PC3 cells over-expressing Bcl-2 at 300 nM pre-treated with 20 uM apoptosis inhibitor z-VAD-fmk for 1 hr before compound exposure for 24 hrs by DAPI staining method. Type of data set: functional, cell-based.
For data set [30], the system named is PC-3. Kind of data set: Induction of autophagy in human PC3 cells over-expressing Bcl-2 at 300 nM pre-treated with 5 mM autophagy inhibitor 3-MA for 1 hr before compound exposure for 24 hrs by acridine orange staining based fluorescence microscopy. Type of data set: functional, cell-based.
Data set [31] deals with PC-3. Put plainly: Induction of autophagy in human PC3 cells over-expressing DS-Red-Beclin-1 at 300 nM pre-treated with 20 uM apoptosis inhibitor z-VAD-fmk for 1 hr before compound exposure for 24 hrs by acridine orange staining based fluorescence microscopy. In kind it is functional, cell-based.
Data set [32] has as its system CCRF S-180. Kind of data set: Antitumor activity against mouse S180 solid tumor cells implanted in Swiss albino mouse assessed as tumor growth inhibition at 5 mg/kg, ip measured on day 13. Type of data set: functional. To be noted: CCRF S-180, ip, 312 h, route intraperitoneal, read-out: TGI.
Data set [33] concerns CCRF S-180. Put plainly: Antitumor activity against mouse S180 solid tumor cells implanted in Swiss albino mouse assessed as tumor growth inhibition at 10 mg/kg, ip measured on day 13. Type of data set: functional. Particulars: CCRF S-180, ip, 312 h, route intraperitoneal, read-out: TGI.
Data set [34] has as its system Mus musculus. Kind of data set: Toxicity in mouse S180 solid tumor cells implanted Swiss albino mouse assessed as mouse mortality at 5 mg/kg, ip measured on day 13. The arrangement: dose 5 mg/kg, route intraperitoneal. To be noted: in vivo. In kind it is organism-based.
For data set [35], the system named is Mus musculus. Put plainly: Toxicity in mouse S180 solid tumor cells implanted Swiss albino mouse assessed as mouse mortality at 10 mg/kg, ip measured on day 13. Type of data set: organism-based. The arrangement: dose 10 mg/kg, route intraperitoneal. To be noted: in vivo.
Data set [36] deals with CCRF S-180. Kind of data set: Antitumor activity against mouse S180 ascites cells implanted in Swiss albino mouse assessed as tumor growth inhibition at 5 mg/kg, ip measured on day 12. To be noted: CCRF S-180, ip, 288 h, route intraperitoneal, read-out: TGI. Type of data set: functional.
Data set [37] relates to CCRF S-180. Kind of data set: Antitumor activity against mouse S180 ascites cells implanted in Swiss albino mouse assessed as tumor growth inhibition at 10 mg/kg, ip measured on day 12. Type of data set: functional. Particulars: CCRF S-180, ip, 288 h, route intraperitoneal, read-out: TGI.
Data set [38] has as its system Mus musculus. Kind of data set: Toxicity in mouse S180 ascites cells implanted Swiss albino mouse assessed as mouse mortality at 5 mg/kg, ip measured on day 13. Type of data set: organism-based. The arrangement: dose 5 mg/kg, route intraperitoneal. To be noted: in vivo.
For data set [39], the system named is Mus musculus. Kind of data set: Toxicity in mouse S180 ascites cells implanted Swiss albino mouse assessed as mouse mortality at 10 mg/kg, ip measured on day 13. In kind it is organism-based. The arrangement: dose 10 mg/kg, route intraperitoneal. Particulars: in vivo.
The test system of data set [40] is CCRF S-180. Kind of data set: Antitumor activity against mouse S180 solid tumor cells implanted in Swiss albino mouse assessed as tumor growth inhibition at 22 mg/kg, ip measured on day 13. To be noted: CCRF S-180, ip, 312 h, route intraperitoneal, read-out: TGI. In kind it is functional.
For data set [41], the system named is Mus musculus. Kind of data set: Toxicity in mouse S180 solid tumor cells implanted Swiss albino mouse assessed as mouse mortality at 22 mg/kg, ip measured on day 13. The arrangement: dose 22 mg/kg, route intraperitoneal. In kind it is organism-based. To be noted: in vivo.
Data set [42] relates to CCRF S-180. Kind of data set: Antitumor activity against mouse S180 ascites cells implanted in Swiss albino mouse assessed as tumor growth inhibition at 22 mg/kg, ip measured on day 12. Type of data set: functional. Particulars: CCRF S-180, ip, 288 h, route intraperitoneal, read-out: TGI.
For data set [43], the system named is Mus musculus. Kind of data set: Toxicity in mouse S180 ascites cells implanted Swiss albino mouse assessed as mouse mortality at 22 mg/kg, ip measured on day 13. Particulars: in vivo. The arrangement: dose 22 mg/kg, route intraperitoneal. Type of data set: organism-based.

As for `CC1(C)CCC[C@]2(C)[C@@H](CC[C@@](C)(O)/C=C/c3ccc(F)cc3)[C@](C)(O)CC[C@@H]12`, the outcome with PC-3 [1], with PC-3 [11], in the data set with PC-3 [12], in the data set on PC-3 [13], in the data set on PC-3 [14] and in the data set with PC-3 [15] was Active. Also, the result in the data set on PC-3 [16], with PC-3 [17], with PC-3 [18], with PC-3 [19], in the data set with PC-3 [20] and with PC-3 [21] was Active. Besides, the result in the data set on PC-3 [26], in the data set with PC-3 [30] and in the data set on PC-3 [31] was Active. For the same molecule, the Activity entry is “Dose-dependent effect” in the data set with PC-3 [2]; “Dose-dependent effect” in the data set on PC-3 [3]; “Dose-dependent effect” in the data set on PC-3 [4]; “Non-toxic” in data set [7]; “Non-toxic” in data set [8]; “Dose-dependent effect” in data set [9]. Further, the Activity entry in the data set with Mus musculus [34], with Mus musculus [35], in the data set with Mus musculus [38] and with Mus musculus [39] was “Non-toxic” throughout. The inhibition entry with PC-3 [5] and with PC-3 [6] was “Active” throughout. The results for the IC50 (in data set [10]; with A549; in the data set with HeLa) were 0.082 µM, 3.1 µM and 3.46 µM, respectively. In addition, the result in the data set with PC-3 [22], with PC-3 [23], in the data set with PC-3 [24], with PC-3 [25], in the data set with PC-3 [27] and in the data set on PC-3 [28] was inactive. In addition, in the data set on PC-3 [29], the result was inactive. In addition, the inhibition in vivo at 5 mg/kg in the data set on CCRF S-180 [32] was 32.5%; with CCRF S-180 [36] it was 64.7%. Besides, the inhibition in vivo at 10 mg/kg in the data set with CCRF S-180 [33] was determined as 39.8%; in the data set with CCRF S-180 [37], 74.9%.
As for `O=c1[nH]cc(F)c(=O)[nH]1` [FLUOROURACIL], the inhibition in vivo at 22 mg/kg was 52.5% in the data set with CCRF S-180 [40] and 96.9% with CCRF S-180 [42]. For the same molecule, the Activity result in the data set with Mus musculus [41] and in the data set with Mus musculus [43] was “Non-toxic” in each case.

The values above are taken from ChEMBL document CHEMBL3421624, “Design and Synthesis of Antitumor Heck-Coupled Sclareol Analogues: Modulation of BH3 Family Members by SS-12 in Autophagy and Apoptotic Cell Death” (J Med Chem, 2015).
